Results taken from patent US9809598B2 (Merck Patent GmbH, priority 2014, dated 2017).

Legend:
PARP-1 = target: T1, PARP-1 (Homo sapiens, UniProt P09874); assay: PARP-1 autoparsylation assay (HTRF); format: biochemical; settings: His-tagged Parp-1, autoparsylation HTRF
T1 construct: purchased Enzo Life Sciences GmbH, Lörrach, Germany
Source text: Description of the PARP1 Assay
Biochemical Activity Testing of PARP-1: Autoparsylation Assay
The autoparsylation assay is run in two steps: the enzymatic reaction in which His-tagged Parp-1 transfers biotinylated ADP-ribose/ADP-ribose to itself from biotinylated NAD/NAD as co-substrate and the detection reaction where a time resolved FRET between cryptate labelled anti-His antibody bound to the His tag of the enzyme and Xlent® labelled-streptavidin bound the biotin-parsylation residue is analysed. The autoparsylation activity is detectable directly via the increase in HTRF signal.
The autoparsylation assay is performed as 384-well HTRF® (Cisbio, Codolet, France) assay format in Greiner low volume nb 384-well microtiter plates. […] The ratio of the emission signals is determined. The full value used is the inhibitor-free reaction. The pharmacological zero value used is Olaparib (LClabs, Woburn, US) in a final concentration of 1 μM. The inhibitory values (IC50) are determined using either the program Symyx Assay Explorer® or Condosseo® from GeneData.

TNKS1 = target: T2, TNKS1 (Homo sapiens, UniProt O95271); assay: TNKS1 activity ELISA (autoparsylation assay); format: biochemical; settings: GST-tagged Tnks-1 (1023-1327 aa)
T2 construct: GST-tagged Tnks-1 (1023-1327 aa, prepared in-house); made in house
Description: (§1) Description of the TNKS1 and TNKS2 ELISA Assay
(§2) Biochemical Activity Testing of TNKS 1 and 2: Activity ELISA (Autoparsylation Assay)
(§3) For analysis of autoparsylation activity of TNKS 1 and 2 an activity ELISA iss performed: In the first step GST tagged TNKS is captured on a Glutathione coated plate. Then the activity assay with biotinylated NAD is performed in the absence/presence of the compounds. During the enzymatic reaction GST tagged TNKS transfers biotinylated ADP-ribose to itself from biotinylated NAD as co-substrate. For the detection streptavidin-HRP conjugate is added that binds to the biotinylated TNKS and is thereby captured to the plates. The amount of biotinylated resp. autoparsylated TNKS is detected with a luminescence substrate for HRP. The level of the luminescence signal correlats directly with the amount of autoparsylated TNKS and therefore with activity of TNKS.
(§4) The activity ELISA is performed in 384 well Glutathione coated microtiter plates (Express capture Glutathione coated plate, Biocat, Heidelberg, Germany). The plates are pre-equilibrated with PBS. […] The plates are washed 3 times with PBS-Tween-20. The wells are blocked by incubation at room temperature for 20 minutes with 50 μl blocking buffer (PBS, 0.05% Tween-20, 0.5% BSA). Afterwards the plates are washed 3 times with PBS-Tween-20. […] The reaction is stopped by 3 times washing with PBS-Tween-20. For the detection 50 μl of 20 ng/μl Streptavidin, HRP conjugate (MoBiTec, Göttingen, Germany) in PBS/0.05% Tween-20/0.01% BSA are added and the plates are incubated for 30 minutes at room temperature. After three times washing with PBS-Tween-20 50 μl of SuperSignal ELISA Femto Maximum sensitivity substrate solution (ThermoFisherScientific (Pierce), Bonn, Germany) are added. Following a 1 minute incubation at room temperature luminescence signals are measured with an Envision multimode reader (Perkin Elmer LAS Germany GmbH) at 700 nm. The full value used is the inhibitor-free reaction. […] The inhibitory values (IC50) are determined using either the program Symyx Assay Explorer® or Condosseo® from GeneData.

TNKS2 = target: T3, TNKS2 (Homo sapiens, UniProt Q9H2K2); assay: TNKS2 activity ELISA (autoparsylation assay); format: biochemical; settings: GST-tagged Tnks-2 (873-1166 aa); read-out: IC50 [M] TNKS2 ELISA
T3 construct: GST-tagged Tnks-2 (873-1166 aa, prepared in-house); made in house
Description: as §1, §2, §3, §4

Tankyrases = settings: read-out: EC50 [M] TNKS cellular assay; DLD1 cells, 24 hours, Axin2 increase

T2 sequence (O95271 1023-1327): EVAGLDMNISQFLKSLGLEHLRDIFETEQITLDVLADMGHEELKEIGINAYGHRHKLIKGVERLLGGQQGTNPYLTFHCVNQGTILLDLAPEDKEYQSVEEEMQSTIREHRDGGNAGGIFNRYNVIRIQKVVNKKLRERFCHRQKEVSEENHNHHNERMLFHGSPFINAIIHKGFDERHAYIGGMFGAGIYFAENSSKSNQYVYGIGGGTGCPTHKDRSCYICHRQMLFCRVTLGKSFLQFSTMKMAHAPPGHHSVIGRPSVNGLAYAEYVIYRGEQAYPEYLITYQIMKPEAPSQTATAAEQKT
T1 sequence (P09874 whole entry): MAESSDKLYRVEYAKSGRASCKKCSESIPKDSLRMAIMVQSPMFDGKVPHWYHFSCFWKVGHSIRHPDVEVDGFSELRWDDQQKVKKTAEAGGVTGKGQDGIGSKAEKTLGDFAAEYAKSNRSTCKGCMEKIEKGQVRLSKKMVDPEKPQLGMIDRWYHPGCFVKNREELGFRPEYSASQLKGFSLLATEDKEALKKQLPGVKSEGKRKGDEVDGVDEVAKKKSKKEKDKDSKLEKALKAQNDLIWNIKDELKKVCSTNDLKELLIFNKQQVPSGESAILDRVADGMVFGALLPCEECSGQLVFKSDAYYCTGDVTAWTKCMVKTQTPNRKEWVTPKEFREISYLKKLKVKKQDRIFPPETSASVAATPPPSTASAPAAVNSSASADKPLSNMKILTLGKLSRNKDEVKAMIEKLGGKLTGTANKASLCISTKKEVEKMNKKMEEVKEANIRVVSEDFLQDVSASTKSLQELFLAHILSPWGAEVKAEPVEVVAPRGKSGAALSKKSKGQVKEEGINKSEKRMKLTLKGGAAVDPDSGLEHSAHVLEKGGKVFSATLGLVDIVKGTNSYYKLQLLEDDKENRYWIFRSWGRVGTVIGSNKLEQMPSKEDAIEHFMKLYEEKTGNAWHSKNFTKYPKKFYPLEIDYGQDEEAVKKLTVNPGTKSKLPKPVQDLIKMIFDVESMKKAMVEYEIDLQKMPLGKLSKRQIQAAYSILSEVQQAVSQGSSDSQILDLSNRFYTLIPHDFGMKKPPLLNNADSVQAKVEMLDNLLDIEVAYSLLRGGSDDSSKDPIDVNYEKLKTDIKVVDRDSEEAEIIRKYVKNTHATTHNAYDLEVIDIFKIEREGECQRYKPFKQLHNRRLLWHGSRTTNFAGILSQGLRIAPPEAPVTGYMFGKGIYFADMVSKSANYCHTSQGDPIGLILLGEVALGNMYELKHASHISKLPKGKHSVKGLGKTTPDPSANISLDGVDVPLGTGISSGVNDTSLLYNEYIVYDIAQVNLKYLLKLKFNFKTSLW
T3 sequence (Q9H2K2 873-1166): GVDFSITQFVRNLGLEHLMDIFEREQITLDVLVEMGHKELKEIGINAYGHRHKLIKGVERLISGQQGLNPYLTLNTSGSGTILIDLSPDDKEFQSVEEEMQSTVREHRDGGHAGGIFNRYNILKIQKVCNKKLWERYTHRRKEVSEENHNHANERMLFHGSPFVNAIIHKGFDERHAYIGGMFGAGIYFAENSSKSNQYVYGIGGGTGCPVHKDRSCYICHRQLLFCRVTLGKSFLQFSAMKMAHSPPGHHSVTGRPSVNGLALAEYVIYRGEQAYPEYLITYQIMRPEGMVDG

Row | Compound | IC50 (PARP-1) | IC50 (TNKS1) | IC50 (TNKS2) | EC50 (Tankyrases)
1 | Cc1cc2c(=O)[nH]c(CCCC(=O)N3CCC(C(=O)c4cnn(C)c4)CC3)nn2c1 [Compound C168, 6-Methyl-2-{4-[4-(1-methyl-1H-pyrazole-4-carbonyl)-piperidin-1-yl]-4-oxo-butyl}-3H-pyrrolo[2,1-f][1,2,4]triazin-4-one] | 5800 nM | 1 nM | 3.5e-09 M | 3.4e-08 M
2 | Nc1ncc(C2CCN(C(=O)CCCc3nn4cccc4c(=O)[nH]3)CC2)cc1-c1ncccn1 [Compound C139, 2-[4-(6-Amino-5-pyrimidin-2-yl-3′,4′,5′,6′-tetrahydro-2′H-[3,4′]bipyridinyl-1′-yl)-4-oxo-butyl]-3H-pyrrolo[2,1-f][1,2,4]triazin-4-one] | 3200 nM | 0.23 nM | 2.6e-10 M | 3.4e-09 M
3 | Cn1ncc2c(=O)[nH]c(CCCC(=O)N3CCC(c4nnc(-c5ccccc5)o4)CC3)nc21 [Compound C46, 1-Methyl-6-{4-oxo-4[4-(5-phenyl-[1,3,4]oxadiazol-2-yl)-piperidin-1-yl]-butyl}-1,5-dihydro-pyrazolo[3,4-d]pyrimidin-4-one] | 7200 nM | 2.9 nM | 2.4e-09 M | 6.6e-08 M
4 | CCn1cc(C(=O)C2CCN(C(=O)CCCc3nn4cc(F)cc4c(=O)[nH]3)CC2)cn1 [Compound C215, 2-{4-[4-(1-Ethyl-1H-pyrazole-4-carbonyl)-piperidin-1-yl]-4-oxo-butyl}-6-fluoro-3H-pyrrolo[2,1-f][1,2,4]triazin-4-one] | 5000 nM | 1.5 nM | 1.4e-09 M | 1.8e-08 M
5 | Cc1csc2c(=O)[nH]c(CCCC(=O)N3CCC(C(=O)c4ccc(C(C)(C)O)cc4)CC3)nc12 [Compound C133, 2-{4-{4-[4-(1-Hydroxy-1-methyl-ethyl)benzoyl]-1-piperidyl}-4-oxo-butyl}-7-methyl-3H-thieno[3,2-d]pyrimidin-4-one] | 1000 nM | 2.1 nM | 7.5e-10 M | 6.4e-08 M
6 | Cc1ccc2c(=O)[nH]c(CCCC(=O)N3CCC(c4cnc(N)c(C#N)c4)CC3)nn12 [Compound C149, 6-Amino-1′-[4-(7-methyl-4-oxo-3,4-dihydro-pyrrolo[2,1-f][1,2,4]triazin-2-yl)-butyryl]-1′,2′,3′,4′,5′,6′-hexahydro-[3,4′]bipyridinyl-5-carbonitrile] | 770 nM | 0.38 nM | 3.8e-10 M | 3.1e-09 M
7 | COc1ccc(C(=O)C2CCN(C(=O)CCCc3cn4cc(C)cc4c(=O)[nH]3)CC2)cc1 [Compound C8, 3-{4-[4-(4-Methoxy-benzoyl)-piperidin-1-yl]-4-oxo-butyl}-7-methyl-2H-pyrrolo[1,2-a]pyrazin-1-one] | 2900 nM | < 0.1 nM | 1.6e-10 M | 2.8e-09 M
8 | COc1ccc(C(=O)C2CCN(C(=O)CCCc3nc4c(cnn4C)c(=O)[nH]3)CC2)cc1C [Compound C49, 6-{4-[4-(4-Methoxy-3-methyl-benzoyl)-piperidin-1-yl]-4-oxo-butyl}-1-methyl-1,5-dihydro-pyrazolo[3,4-d]pyrimidin-4-one] | 9900 nM | 0.16 nM | 1.4e-10 M | 3.1e-10 M
9 | COc1ccc(C(=O)C2CCN(C(=O)CCCc3nn4cccc4c(=O)[nH]3)CC2)cc1C [Compound C143, 2-{4-[4-(4-Methoxy-3-methyl-benzoyl)-piperidin-1-yl]-4-oxo-butyl}-3H-pyrrolo[2,1-f][1,2,4]triazin-4-one] | 4800 nM | 0.19 nM | 1.6e-10 M | 1.7e-09 M
10 | Cc1scc2c(=O)[nH]c(CCCC(=O)N3CCC(Oc4ccc(C#N)cc4)CC3)nc12 [Compound C118, 4-{1-[4-(7-Methyl-4-oxo-3,4-dihydro-thieno[3,4-d]pyrimidin-2-yl)-butyryl]-piperidin-4-yloxy}-benzonitrile] | 850 nM | 110 nM | 8.9e-08 M | 9.1e-07 M
